Assays:
Format in all cases: cell-based
OVCAR-3 = experiment: Cancer cell panel, cell viability (resazurin): Ovarian, OVCAR-3; conditions: OVCAR-3 (Ovarian), 72 hours; labelled drug combined with Example 3
A2780 = experiment: Cancer cell panel, cell viability (resazurin): Ovarian, A2780; conditions: 72 hours, labelled drug combined with Example 3
Caov-3 = experiment: Cancer cell panel, cell viability (resazurin): Ovarian, Caov-3; conditions: Caov-3 (Ovarian), 72 hours; labelled drug combined with Example 3
Mia-Paca-2 = experiment: Cancer cell panel, cell viability (resazurin): Pancreatic, Mia-Paca-2; conditions: Mia-Paca-2 (Pancreatic), 72 hours; labelled drug combined with Example 3
Panc-1 = experiment: Cancer cell panel, cell viability (resazurin): Pancreatic, Panc-1; conditions: Panc-1 (Pancreatic), 72 hours; labelled drug combined with Example 3
BxPC3 = experiment: Cancer cell panel, cell viability (resazurin): Pancreatic, BxPC3; conditions: 72 hours, labelled drug combined with Example 3
HCT116 = experiment: Cancer cell panel, cell viability (resazurin): Colon, HCT116; conditions: 72 hours, labelled drug combined with Example 3
HT29 = experiment: Cancer cell panel, cell viability (resazurin): Colon, HT29; conditions: 72 hours, labelled drug combined with Example 3
Colo205 = experiment: Cancer cell panel, cell viability (resazurin): Colon, Colo205; conditions: 72 hours, labelled drug combined with Example 3
LoVo = experiment: Cancer cell panel, cell viability (resazurin): Colon, LoVo; conditions: 72 hours, labelled drug combined with Example 3
DLD-1 = experiment: Cancer cell panel, cell viability (resazurin): Colon, DLD-1; conditions: DLD-1 (Colon), 72 hours; labelled drug combined with Example 3
H1299 = experiment: Cancer cell panel, cell viability (resazurin): NSCLC, H1299; conditions: 72 hours, labelled drug combined with Example 3
A549 = experiment: Cancer cell panel, cell viability (resazurin): NSCLC, A549; conditions: 72 hours, labelled drug combined with Example 3
H460 = experiment: Cancer cell panel, cell viability (resazurin): NSCLC, H460; conditions: 72 hours, labelled drug combined with Example 3
H1975 = experiment: Cancer cell panel, cell viability (resazurin): NSCLC, H1975; conditions: 72 hours, labelled drug combined with Example 3
H23 = experiment: Cancer cell panel, cell viability (resazurin): NSCLC, H23; conditions: 72 hours, labelled drug combined with Example 3
MDA-MB-231 = experiment: Cancer cell panel, cell viability (resazurin): Breast, MDA-MB-231; conditions: MDA-MB-231 (Breast), 72 hours; labelled drug combined with Example 3
MDA-MB-157 = experiment: Cancer cell panel, cell viability (resazurin): Breast, MDA-MB-157; conditions: MDA-MB-157 (Breast), 72 hours; labelled drug combined with Example 3
BT-20 = experiment: Cancer cell panel, cell viability (resazurin): Breast, BT-20; conditions: BT-20 (Breast), 72 hours; labelled drug combined with Example 3
ZR-75-1 = experiment: Cancer cell panel, cell viability (resazurin): Breast, ZR-75-1; conditions: ZR-75-1 (Breast), 72 hours; labelled drug combined with Example 3
786-O = experiment: Cancer cell panel, cell viability (resazurin): Renal, 786-O; conditions: 786-O (Renal), 72 hours; labelled drug combined with Example 3
Caki-1 = experiment: Cancer cell panel, cell viability (resazurin): Renal, Caki-1; conditions: Caki-1 (Renal), 72 hours; labelled drug combined with Example 3
Caki-2 = experiment: Cancer cell panel, cell viability (resazurin): Renal, Caki-2; conditions: Caki-2 (Renal), 72 hours; labelled drug combined with Example 3
A375 = experiment: Cancer cell panel, cell viability (resazurin): Melanoma, A375; conditions: 72 hours, labelled drug combined with Example 3
SK-MEL-3 = experiment: Cancer cell panel, cell viability (resazurin): Melanoma, SK-MEL-3; conditions: SK-MEL-3 (Melanoma), 72 hours; labelled drug combined with Example 3
SK-MEL-24 = experiment: Cancer cell panel, cell viability (resazurin): Melanoma, SK-MEL-24; conditions: SK-MEL-24 (Melanoma), 72 hours; labelled drug combined with Example 3
WM-115 = experiment: Cancer cell panel, cell viability (resazurin): Melanoma, WM-115; conditions: WM-115 (Melanoma), 72 hours; labelled drug combined with Example 3
MeWO = experiment: Cancer cell panel, cell viability (resazurin): Melanoma, MeWO; conditions: 72 hours, labelled drug combined with Example 3
U266 = experiment: Cancer cell panel, cell viability (resazurin): multiple myeloma, U266; conditions: 72 hours, labelled drug combined with Example 3
RPMI8226 = experiment: Cancer cell panel, cell viability (resazurin): multiple myeloma, RPMI8226; conditions: 72 hours, labelled drug combined with Example 3
U87MG = experiment: Cancer cell panel, cell viability (resazurin): Glioblastoma, U87MG; conditions: 72 hours, labelled drug combined with Example 3
K562 = experiment: Cancer cell panel, cell viability (resazurin): Leukemia, K562; conditions: 72 hours, labelled drug combined with Example 3
HL60 = experiment: Cancer cell panel, cell viability (resazurin): Leukemia, HL60; conditions: 72 hours, labelled drug combined with Example 3
EOL-1 = experiment: Cancer cell panel, cell viability (resazurin): Leukemia, EOL-1; conditions: EOL-1 (Leukemia), 72 hours; labelled drug combined with Example 3
MOLT4 = experiment: Cancer cell panel, cell viability (resazurin): Leukemia, MOLT4; conditions: 72 hours, labelled drug combined with Example 3

With CC(=O)Nc1cccc(-n2c(=O)n(C3CC3)c(=O)c3c(Nc4ccc(I)cc4F)n(C)c(=O)c(C)c32)c1 [Trametinib, trametinib] the “synergy, additivity or antagonism of the combination of Example 3 with the anti-cancer drug” value (“synergy, additivity or antagonism” below) (OVCAR-3) was “+ + (Slight synergy relative to each agent alone (CI = 0.75-0.9 by Bliss Independence Model))”, the “synergy, additivity or antagonism” value (A2780) was “+ + (Slight synergy relative to each agent alone (CI = 0.75-0.9 by Bliss Independence Model))” and the “synergy, additivity or antagonism” value (Caov-3) was “+ + (Slight synergy relative to each agent alone (CI = 0.75-0.9 by Bliss Independence Model))”. The “synergy, additivity or antagonism” value (Mia-Paca-2) was “+ (Additive relative to each agent alone (CI = 0.9-1 by Bliss Independence Model and <0.9 by Highest Single Agent Model))”, the “synergy, additivity or antagonism” value (Panc-1) was “+ (Additive relative to each agent alone (CI = 0.9-1 by Bliss Independence Model and <0.9 by Highest Single Agent Model))” and the “synergy, additivity or antagonism” value (BxPC3) was “+ + + + (Strong synergy relative to each agent alone (CI < 0.4 by Bliss Independence Model))”. The “synergy, additivity or antagonism” value (HCT116) was “+ + + (Synergy relative to each agent alone (CI = 0.4-0.74 by Bliss Independence Model))”, the “synergy, additivity or antagonism” value (HT29) was “+ (Additive relative to each agent alone (CI = 0.9-1 by Bliss Independence Model and <0.9 by Highest Single Agent Model))” and the “synergy, additivity or antagonism” value (Colo205) was “+ + + (Synergy relative to each agent alone (CI = 0.4-0.74 by Bliss Independence Model))”. The “synergy, additivity or antagonism” value (LoVo) was “+ + (Slight synergy relative to each agent alone (CI = 0.75-0.9 by Bliss Independence Model))”, the “synergy, additivity or antagonism” value (DLD-1) was “+ + + (Synergy relative to each agent alone (CI = 0.4-0.74 by Bliss Independence Model))” and the “synergy, additivity or antagonism” value (H1299) was “+ (Additive relative to each agent alone (CI = 0.9-1 by Bliss Independence Model and <0.9 by Highest Single Agent Model))”. For the same compound, the “synergy, additivity or antagonism” value (A549) was “+ + + + (Strong synergy relative to each agent alone (CI < 0.4 by Bliss Independence Model))”, the “synergy, additivity or antagonism” value (H460) was “+ + + (Synergy relative to each agent alone (CI = 0.4-0.74 by Bliss Independence Model))” and the “synergy, additivity or antagonism” value (H1975) was “+ + + (Synergy relative to each agent alone (CI = 0.4-0.74 by Bliss Independence Model))”. The “synergy, additivity or antagonism” value (H23) was “+ + + (Synergy relative to each agent alone (CI = 0.4-0.74 by Bliss Independence Model))”, the “synergy, additivity or antagonism” value (MDA-MB-231) was “+ + (Slight synergy relative to each agent alone (CI = 0.75-0.9 by Bliss Independence Model))” and the “synergy, additivity or antagonism” value (MDA-MB-157) was “+ + (Slight synergy relative to each agent alone (CI = 0.75-0.9 by Bliss Independence Model))”. For the same compound, the “synergy, additivity or antagonism” value (BT-20) was “+ + + (Synergy relative to each agent alone (CI = 0.4-0.74 by Bliss Independence Model))”, the “synergy, additivity or antagonism” value (ZR-75-1) was “+ + (Slight synergy relative to each agent alone (CI = 0.75-0.9 by Bliss Independence Model))” and the “synergy, additivity or antagonism” value (786-O) was “+ + + (Synergy relative to each agent alone (CI = 0.4-0.74 by Bliss Independence Model))”. The “synergy, additivity or antagonism” value (Caki-1) was “+ (Additive relative to each agent alone (CI = 0.9-1 by Bliss Independence Model and <0.9 by Highest Single Agent Model))”, the “synergy, additivity or antagonism” value (Caki-2) was “− − − (Strongly antagonistic relative to each agent alone (CI > 1.49 by Highest Single Agent Model))” and the “synergy, additivity or antagonism” value (A375) was “+ + (Slight synergy relative to each agent alone (CI = 0.75-0.9 by Bliss Independence Model))”. The “synergy, additivity or antagonism” value (SK-MEL-3) was “+ (Additive relative to each agent alone (CI = 0.9-1 by Bliss Independence Model and <0.9 by Highest Single Agent Model))”, the “synergy, additivity or antagonism” value (SK-MEL-24) was “+ + (Slight synergy relative to each agent alone (CI = 0.75-0.9 by Bliss Independence Model))” and the “synergy, additivity or antagonism” value (WM-115) was “+ + (Slight synergy relative to each agent alone (CI = 0.75-0.9 by Bliss Independence Model))”. The “synergy, additivity or antagonism” value (MeWO) was “+ + (Slight synergy relative to each agent alone (CI = 0.75-0.9 by Bliss Independence Model))”, the “synergy, additivity or antagonism” value (U266) was “+ + (Slight synergy relative to each agent alone (CI = 0.75-0.9 by Bliss Independence Model))” and the “synergy, additivity or antagonism” value (RPMI8226) was “+ + (Slight synergy relative to each agent alone (CI = 0.75-0.9 by Bliss Independence Model))”. The “synergy, additivity or antagonism” value (U87MG) was “+ + (Slight synergy relative to each agent alone (CI = 0.75-0.9 by Bliss Independence Model))”, the “synergy, additivity or antagonism” value (K562) was “+ (Additive relative to each agent alone (CI = 0.9-1 by Bliss Independence Model and <0.9 by Highest Single Agent Model))” and the “synergy, additivity or antagonism” value (HL60) was “+ + (Slight synergy relative to each agent alone (CI = 0.75-0.9 by Bliss Independence Model))”. For the same compound, the “synergy, additivity or antagonism” value (EOL-1) was “+ + (Slight synergy relative to each agent alone (CI = 0.75-0.9 by Bliss Independence Model))” and the “synergy, additivity or antagonism” value (MOLT4) was “+ (Additive relative to each agent alone (CI = 0.9-1 by Bliss Independence Model and <0.9 by Highest Single Agent Model))”.

— US10227344B2, “CK2 inhibitors, compositions and methods thereof” (Polaris Pharmaceuticals, Inc., priority 2016, dated 2019)
